29 sequences from the supplement of paper PMC11208160 can be followed below.
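Also: IS621 bridge recombinase in Escherichia coli cells against a fixed T5 target plasmid.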

A short description of this data set: recombinant UMI read abundance after kanamycin selection (control-corrected) (log10(CPM+1)); higher = more efficient recombination; extreme values may be limits of the assay; sequences stand for … in AGTGCAGAGAAAATCGGCCAGTTTTCTCTGCCTGCAGTCCGCATGCCGTGGGACCCCTTGGGTTCTAACCTGTTGCCTAGATTTATGCAGCGGACTGCCTTTCTCCCAAAGTGATAAACCGG…AGGTTGGTTTCACT; site = the 11-nt donor. An outline of the steps: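 The measure is log10(CPM+1) for recombinant UMIs. These were PCR-amplified across the donor–target junction and sequenced after Escherichia coli carrying a donor and donor-binding-loop pair library and a target plasmid with T7-inducible IS621 bridge recombinase was plated on IPTG (0.07 mM) plus kanamycin or unselected. CPM were averaged over two replicates and scaled by control-derived factors.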
On to “CGGGAACCATGGACCGGTTTTCCCGGTAATCCGTATTTGAT (site CGCGAACCTAT)”, for which the “recombinant UMI read abundance (log10)” value stood at 0.

Turning to “CGGGAACCATGGACCGGTTTTCCCGGTAATCCGTATTTGAT (site CGGAAACCTAT)”, the “recombinant UMI read abundance (log10)” value is 0.

With “CGGGAACCATGGACCGGTTTTCCCGGTAATCCGTATTTGAT (site CGGCAACCTAT)”, the “recombinant UMI read abundance (log10)” value amounted to 0.

“CGGGAACCATGGACCGGTTTTCCCGGTAATCCGTATTTGAT (site CGGGAAACTAT)”: the “recombinant UMI read abundance (log10)” value was 0.

In the case of “CGGGAACCATGGACCGGTTTTCCCGGTAATCCGTATTTGAT (site CGGGAACCTAA)”, the “recombinant UMI read abundance (log10)” value is 0.00496.

Take “CGGGAACCATGGACCGGTTTTCCCGGTAATCCGTATTTGAT (site CGGGAACCTAC)”: the “recombinant UMI read abundance (log10)” value is 0.0116.

As to “CGGGAACCATGGACCGGTTTTCCCGGTAATCCGTATTTGAT (site CGGGAACCTAG)”, the “recombinant UMI read abundance (log10)” value stood at 0.

In the case of “CGGGAACCATGGACCGGTTTTCCCGGTAATCCGTATTTGAT (site CGGGAACCTAT)”, the “recombinant UMI read abundance (log10)” value is 0.

For “CGGGAACCATGGACCGGTTTTCCCGGTAATCCGTATTTGAT (site CGGGAACCTCT)”, the “recombinant UMI read abundance (log10)” value came to 0.

Turning to “CGGGAACCATGGACCGGTTTTCCCGGTAATCCGTATTTGAT (site CGGGAACCTGT)”, the “recombinant UMI read abundance (log10)” value is 0.

As for “CGGGAACCATGGACCGGTTTTCCCGGTAATCCGTATTTGAT (site CGGGAACCTTT)”, the “recombinant UMI read abundance (log10)” value was 0.00554.

Take “CGGGAACCATGGACCGGTTTTCCCGGTAATCCGTATTTGAT (site CGGGAAGCTAT)”: the “recombinant UMI read abundance (log10)” value stood at 0.

As for “CGGGAACCATGGACCGGTTTTCCCGGTAATCCGTATTTGAT (site CGGGAATCTAT)”, the “recombinant UMI read abundance (log10)” value stood at 0.

Take “CGGGAACCATGGACCGGTTTTCCCGGTAATCCGTATTTGAT (site CGGGACCCTAT)”: the “recombinant UMI read abundance (log10)” value came out at 0.0207.

As to “CGGGAACCATGGACCGGTTTTCCCGGTAATCCGTATTTGAT (site CGGGAGCCTAT)”, the “recombinant UMI read abundance (log10)” value was determined as 0.

Regarding “CGGGAACCATGGACCGGTTTTCCCGGTAATCCGTATTTGAT (site CGGGATCCTAT)”, the “recombinant UMI read abundance (log10)” value is 0.

As for “CGGGAACCATGGACCGGTTTTCCCGGTAATCCGTATTTGAT (site CGGGCACCTAT)”, the “recombinant UMI read abundance (log10)” value amounted to 0.021.

With “CGGGAACCATGGACCGGTTTTCCCGGTAATCCGTATTTGAT (site CGGGGACCTAT)”, the “recombinant UMI read abundance (log10)” value was determined as 0.

Take “CGGGAACCATGGACCGGTTTTCCCGGTAATCCGTATTTGAT (site CGGGTACCTAT)”: the “recombinant UMI read abundance (log10)” value amounted to 0.

Take “CGGGAACCATGGACCGGTTTTCCCGGTAATCCGTATTTGAT (site CGGTAACCTAT)”: the “recombinant UMI read abundance (log10)” value is 0.

With “CGGGAACCATGGACCGGTTTTCCCGGTAATCCGTATTTGAT (site CGTGAACCTAT)”, the “recombinant UMI read abundance (log10)” value was 0.

Turning to “CGGGAACCATGGACCGGTTTTCCCGGTAATCCGTATTTGAT (site CTGGAACCTAT)”, the “recombinant UMI read abundance (log10)” value is 0.

In the case of “CGGGAACCATGGACCGGTTTTCCCGGTAATCCGTATTTGAT (site GGGGAACCTAT)”, the “recombinant UMI read abundance (log10)” value was found to be 0.

As to “CGGGAACCATGGACCGGTTTTCCCGGTAATCCGTATTTGAT (site TGGGAACCTAT)”, the “recombinant UMI read abundance (log10)” value is 0.

“CGGGAACCATGGACCGGTTTTCCCGGTAATCCGTATTTGGT (site CGGGAACCTAA)”: the “recombinant UMI read abundance (log10)” value was found to be 0.0297.

For “CGGGAACCATGGACCGGTTTTCCCGGTAATCCGTATTTGGT (site CGGGAACCTAC)”, the “recombinant UMI read abundance (log10)” value was 0.

For “CGGGAACCATGGACCGGTTTTCCCGGTAATCCGTATTTGGT (site CGGGAACCTAG)”, the “recombinant UMI read abundance (log10)” value is 0.

As to “CGGGAACCATGGACCGGTTTTCCCGGTAATCCGTATTTGGT (site CGGGAACCTAT)”, the “recombinant UMI read abundance (log10)” value is 0.

“CGGGAAGCATGGACCGGTTTTCCCGGTAATCCGTATTTGAT (site CGGGAAACTAT)”: the “recombinant UMI read abundance (log10)” value worked out at 1.7.
